Test results published in article PMC11802874, “The hypolipidemic effect of MI-883, the combined CAR agonist/ PXR antagonist, in diet-induced hypercholesterolemia model” (Nature Communications, 2025).
Several values for one entry are separate records, joined by “and”; a condition that tells them apart may be missing. Identical values can stand only once.

Columns and labels:
[1] = system: humanized PXR-CAR-CYP3A4/3A7 mice; experiment: Glucose homeostasis: IPGTT, IPITT, glycemia, insulin (HFD study); format: in vivo, mouse; parameters: insulinemia: unit not given here
Protocol: Intraperitoneal glucose tolerance test (IPGTT) and Intraperitoneal Insulin Tolerance Test (IPITT) assays were performed one week before the end of the HFD study. For IPGTT, mice fasted for 18 h were intraperitoneally injected with 20% D-glucose solution (2 g/kg BW). Blood was sampled before the injection and 15, 30, 60, and 120 min after. For the IPITT assay, mice fasted for 4 h were administered with 0.75 IU insulin/kg BW. Blood was sampled before the injection and 15, 30, 45, 60, and 90 min after.

[2] = target: T1, human CAR ligand-binding domain (LBD) (Homo sapiens, UniProt Q14994); experiment: TR-FRET CAR coactivator assay (LanthaScreen); format: biochemical
T1 construct: purchased ThermoFisher Scientific PV4836

[3] = system: HepaRG cells; experiment: RT-qPCR mRNA expression in differentiated HepaRG cells
Description: HepaRG cells from Biopredic (Rennes, France) were cultivated and differentiated on the 12-well plates. […] Several batches of HepaRG KO CAR (CAR Knockout HepaRG™ Cells, MTOX1012-1VL, RRID:CVCL_B6AA) and PXR Knockout HepaRG™ Cells, MTOX1011-1VL, RRID:CVCL_B6AS) cells have been obtained from Sigma-Aldrich/Merck (Darmstadt, Germany) and cultivated according to the provider’s protocols. […] Experiments with HepaRG KO PXR and HepaRG KO CAR cells have been performed in duplicates at least in two independent experiments.
RT-qPCR was used to examine gene expression in 2D and 3D PHH, HepaRG cells, or in mouse liver or intestine (ileum) samples as we have described before[60]–[62].
All qRT-qPCR experiments including Trizol reagent (Life Technologies) total RNA isolation, reverse-transcription using a random hexaprimer, and the MMLV Reverse Transcriptase Kit (ThermoFisher Scientific) we have described before^19. qPCR was performed using TaqMan Fast Advanced Master Mix with TaqMan probes (ThermoFisher Scientific). […] The delta-delta method was used for gene expression quantification normalized to at least two reference genes. Three technical replicates were used for each reaction considering the MIQE guidelines. Data are presented as fold induction to vehicle-treated cells/animals.

[4] = single agent 5: MI-883 5, Rif (5 μM) alone

T1 sequence (Q14994 109-348 isoform Q14994-2 limits assumed, other chains not shown): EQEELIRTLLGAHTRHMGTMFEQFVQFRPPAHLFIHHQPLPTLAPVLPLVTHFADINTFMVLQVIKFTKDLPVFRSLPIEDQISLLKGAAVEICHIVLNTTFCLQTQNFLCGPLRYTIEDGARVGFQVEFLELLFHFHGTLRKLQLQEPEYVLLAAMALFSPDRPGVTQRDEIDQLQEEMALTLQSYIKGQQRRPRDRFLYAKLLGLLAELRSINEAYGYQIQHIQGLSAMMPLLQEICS

Compound: NC(=O)c1cc(Cn2cc(-c3c(-c4ccc(Cl)cc4)nc4cc(F)ccn34)nn2)ccc1Cl [MI-883, 2-chloro-5-((4-(2-(4-chlorophenyl)-7-fluoroimidazo[1,2-a]pyridin-3-yl)-1H-1,2,3-triazol-1-yl)methyl)benzamide]
- insulinemia ([1]; HFD study): no effect
- postprandial glucose concentrations in IPGTT or IPITT ([1]; HFD study): did not significantly decrease
- plasma glucose levels ([1]; both studies): no effect
- TR-FRET CAR Coactivator assay, mean signal (Fig. 1b) ([2]; 100pM): 1
- TR-FRET CAR Coactivator assay, mean signal (Fig. 1b) ([2]; 1nM): 1.012
- TR-FRET CAR Coactivator assay, mean signal (Fig. 1b) ([2]; 10nM): 1.235
- TR-FRET CAR Coactivator assay, mean signal (Fig. 1b) ([2]; 100nM): 1.572
- TR-FRET CAR Coactivator assay, mean signal (Fig. 1b) ([2]; 0.5μM): 1.870
- TR-FRET CAR Coactivator assay, mean signal (Fig. 1b) ([2]; 1 μM): 2.020
- TR-FRET CAR Coactivator assay, mean signal (Fig. 1b) ([2]; 10 μM): 2.020
- TR-FRET CAR Coactivator assay, mean signal (Fig. 1b) ([2]; 30 μM): 2.046
- EC50 ([2]; recombinant CAR LBD): 73 ± 20 nM
- INSIG1 mRNA in HepaRG cells [3]: significantly upregulated
- LDLR mRNA in HepaRG cells [3]: significant PXR-dependent upregulation
- SREBF1 mRNA expression in HepaRG / KO cells [3]: CAR-dependent downregulation
- SREBF2 mRNA expression in HepaRG cells [3]: no significant effect
- HMGCR expression relative to control (replicates) ([3]; MI-883 1 μM): 0.8473 and 0.6697 and 1.095 and 1.161 and 1.262 and 0.6816
- HMGCS2 expression relative to control (replicates) ([3]; MI-883 1 μM): 0.9842 and 0.7188 and 1.1212 and 1.322
- PCSK9 expression relative to control (replicates) ([3]; MI-883 1 μM): 0.9984 and 0.8995 and 1.064 and 1.124
- HMGCR expression relative to control (replicates) ([3]; MI-883 1 μM + Rif (5 μM)): 1.453 and 0.9465 and 0.9544 and 1.191 and 1.542 and 0.8007
- HMGCS2 expression relative to control (replicates) ([3]; MI-883 1 μM + Rif (5 μM)): 0.681 and 1.013 and 0.6433 and 0.4816
- PCSK9 expression relative to control (replicates) ([3]; MI-883 1 μM + Rif (5 μM)): 0.8085 and 0.8006 and 1.133 and 0.9198
- HMGCR expression relative to control (replicates) ([3]; MI-883 5 μM): 1.295 and 1.166 and 1.377 and 1.27 and 0.8404
- HMGCS2 expression relative to control (replicates) ([3]; MI-883 5 μM): 0.5911 and 1.022
- PCSK9 expression relative to control (replicates) ([3]; MI-883 5 μM): 0.6066 and 1.012
- HMGCR expression relative to control (replicates) ([3]; MI-883 5 μM + Rif (5 μM)): 1.005 and 1.538 and 1.592 and 1.152 and 1.312
- HMGCS2 expression relative to control (replicates) ([3]; MI-883 5 μM + Rif (5 μM)): 0.8846 and 0.5305
- PCSK9 expression relative to control (replicates) ([3]; MI-883 5 μM + Rif (5 μM)): 1.035 and 0.636
- HMGCR expression relative to control (replicates) ([3]; MI-883 10 μM): 1.683 and 0.9974 and 1.042 and 1.481
- HMGCS2 expression relative to control (replicates) ([3]; MI-883 10 μM): 0.4009 and 0.6268 and 0.831 and 0.8846
- PCSK9 expression relative to control (replicates) ([3]; MI-883 10 μM): 0.6175 and 0.9465 and 1.014 and 0.9985
- HMGCR expression relative to control (replicates) ([3]; MI-883 10 μM + Rif (5 μM)): 1.336 and 1.4868 and 1.027 and 1.993
- HMGCS2 expression relative to control (replicates) ([3]; MI-883 10 μM + Rif (5 μM)): 0.9594 and 1.125 and 0.477 and 0.8873
- PCSK9 expression relative to control (replicates) ([3]; MI-883 10 μM + Rif (5 μM)): 1.314 and 0.9884 and 1.015 and 0.8211
- HMGCR expression relative to control (replicates) ([3]; MI-883 20 μM): 1.186 and 1.442 and 1.1738
- HMGCS2 expression relative to control (replicates) ([3]; MI-883 20 μM): 0.7901 and 0.8336 and 1.102
- PCSK9 expression relative to control (replicates) ([3]; MI-883 20 μM): 0.9308 and 1.156 and 1.11
- HMGCR expression relative to control (replicates) ([3]; MI-883 20 μM + Rif (5 μM)): 0.8382 and 1.516 and 1.756
- HMGCS2 expression relative to control (replicates) ([3]; MI-883 20 μM + Rif (5 μM)): 1.0412 and 1.1415 and 0.9223
- PCSK9 expression relative to control (replicates) ([3]; MI-883 20 μM + Rif (5 μM)): 1.334 and 1.4007 and 1.046
- CYP7A1 mRNA fold (Fig. 3f,g sheet), replicates ([3]; MI-883 1): 0.5746 and 0.6713 and 0.8972 and 0.7445
- INSIG1 mRNA fold (Fig. 3f,g sheet), replicates ([3]; MI-883 1): 1.005 (2×) and 0.8339
- LDLR mRNA fold (Fig. 3f,g sheet), replicates ([3]; MI-883 1): 1.161 and 1.262 and 0.9041 and 0.8572
- SREBF1 mRNA fold (Fig. 3f,g sheet), replicates ([3]; MI-883 1): 0.7942 and 0.8996 and 0.7218
- SREBF2 mRNA fold (Fig. 3f,g sheet), replicates ([3]; MI-883 1): 0.6439 and 0.7635 and 0.7748 and 1.065 and 0.7449 and 1.037
- mRNA fold, Fig. 3b sheet, first block (CYP3A4), replicates ([3]; MI-883 1 (µM), 24 h): 0.8362 and 0.801 and 0.9683 and 1.172 and 0.7446
- mRNA fold, Fig. 3b sheet, second block (gene not given; CYP2B6), replicates ([3]; MI-883 1 (µM), 24 h): 2.928 and 2.816 and 2.017 and 3.044 and 1.065
- mRNA fold, Fig. 3b sheet, first block (CYP3A4), replicates ([3]; MI-883 1 + Rif (5 μM)): 1.353 and 3.215 and 5.541
- mRNA fold, Fig. 3b sheet, second block (CYP2B6), replicates ([3]; MI-883 1 + Rif (5 μM)): 2.0016 and 2.546 and 5.3
- CYP7A1 mRNA fold (Fig. 3f,g sheet), replicates ([3]; MI-883 5): 0.5588 and 0.4759 and 0.4175
- INSIG1 mRNA fold (Fig. 3f,g sheet), replicates ([3]; MI-883 5): 1.268 and 1.368 and 1.1831
- LDLR mRNA fold (Fig. 3f,g sheet), replicates ([3]; MI-883 5): 1.377 and 1.27 and 1.084
- SQLE mRNA fold (Fig. 3f,g sheet), replicates ([3]; MI-883 5): 1.181 (2×) and 1.026
- SREBF1 mRNA fold (Fig. 3f,g sheet), replicates ([3]; MI-883 5): 0.6652 and 0.6777 and 0.7568
- SREBF2 mRNA fold (Fig. 3f,g sheet), replicates ([3]; MI-883 5): 0.5404 and 1.004 and 0.7053
- mRNA fold, Fig. 3b sheet, first block (CYP3A4), replicates ([3]; MI-883 5 + Rif (5 μM)): 1.354 and 1.7483 and 1.162
- mRNA fold, Fig. 3b sheet, second block (CYP2B6), replicates ([3]; MI-883 5 + Rif (5 μM)): 2.182 and 1.817
- CYP7A1 mRNA fold (Fig. 3f,g sheet), replicates ([3]; MI-883 10): 0.4275 and 0.3155 and 0.5022 and 0.4393
- INSIG1 mRNA fold (Fig. 3f,g sheet), replicates ([3]; MI-883 10): 1.223 and 1.042 and 1.225 and 1.172
- LDLR mRNA fold (Fig. 3f,g sheet), replicates ([3]; MI-883 10): 1.481 and 1.183
- SQLE mRNA fold (Fig. 3f,g sheet), replicates ([3]; MI-883 10): 1.043 and 1.272 and 0.888 and 1.111 and 1.1255
- SREBF1 mRNA fold (Fig. 3f,g sheet), replicates ([3]; MI-883 10): 0.5595 and 0.8022 (2×) and 0.6597
- SREBF2 mRNA fold (Fig. 3f,g sheet), replicates ([3]; MI-883 10): 0.6518 and 0.837 and 1.166 and 1.224 and 0.9179 and 0.9421
- mRNA fold, Fig. 3b sheet, first block (CYP3A4), replicates ([3]; MI-883 10): 0.3642 and 0.6511 and 0.7047 and 0.8281 and 0.7972 and 0.5808
- mRNA fold, Fig. 3b sheet, second block (CYP2B6), replicates ([3]; MI-883 10): 2.037 and 2.07 and 1.475 and 2.671 and 1.239 and 0.7631
- mRNA fold, Fig. 3b sheet, first block (CYP3A4), replicates ([3]; MI-883 10 + Rif (5 μM)): 0.875 and 1.224 and 1.6089 and 0.7778
- mRNA fold, Fig. 3b sheet, second block (CYP2B6), replicates ([3]; MI-883 10 + Rif (5 μM)): 1.519 and 3.467 and 2.287 and 1.0661
- CYP7A1 mRNA fold (Fig. 3f,g sheet), replicates ([3]; MI-883 20): 0.3598 and 0.7856
- INSIG1 mRNA fold (Fig. 3f,g sheet), replicates ([3]; MI-883 20): 1.146 and 1.273
- LDLR mRNA fold (Fig. 3f,g sheet), replicates ([3]; MI-883 20): 1.442 and 1.216 and 1.519
- SQLE mRNA fold (Fig. 3f,g sheet), replicates ([3]; MI-883 20): 1.646 and 1.048
- SREBF1 mRNA fold (Fig. 3f,g sheet), replicates ([3]; MI-883 20): 0.7299 and 0.7553
- SREBF2 mRNA fold (Fig. 3f,g sheet), replicates ([3]; MI-883 20): 1.072 and 1.4 and 1.1431
- mRNA fold, Fig. 3b sheet, first block (CYP3A4), replicates ([3]; MI-883 20): 0.6466 and 0.6905 and 0.8398 and 0.439
- mRNA fold, Fig. 3b sheet, second block (CYP2B6), replicates ([3]; MI-883 20): 1.395 and 1.4687 and 2.208 and 1.5457
- mRNA fold, Fig. 3b sheet, first block (CYP3A4), replicates ([3]; MI-883 20 + Rif (5 μM)): 0.5897 and 1.016
- mRNA fold, Fig. 3b sheet, second block (CYP2B6), replicates ([3]; MI-883 20 + Rif (5 μM)): 0.9269 and 2.43 and 1.46
- CYP7A1 mRNA in HepaRG cells ([3]; MI-883: in the absence and presence of rifampicin): significant downregulation
- rifampicin induction of SQLE mRNA in HepaRG cells ([3]; MI-883 at 1 μM, SPA70): abrogated
- CYP2B6 mRNA, RT-qPCR, HepaRG (Fig. 1f), replicates ([3]; Phenobarbital 500 μM, CITCO 1 μM, MI 883 1 μM, ctrl = 1): 4.75 and 4.15 and 4.1
- ABCC4 and UGT1A1 genes in HepaRG cells ([3]; Supplementary Fig. 10): upregulated
- mRNA fold, Fig. 3b sheet, first block (CYP3A4), replicates [3, 4]: 0.6927 and 0.6641 and 0.6779
- mRNA fold, Fig. 3b sheet, second block (CYP2B6), replicates [3, 4]: 3.953 and 2.541 and 3.216
